Assay results from US11992469B2, “Targeting mitochondrial dynamics by mitochondrial fusion promoter M1 as a treatment strategy for nervous system injury” (City University of Hong Kong, priority 2020, dated 2024).

Assays:
[1] = system: MEF Mfn1−/− or Mfn2−/− cultures; conditions: Mfn1 or Mfn2 knockout; cited from earlier work
[2] = system: optic nerve crush injury (CNS injury model); experiment: Optogenetic stimulation of RGCs and local field potential (LFP) recordings in superior colliculus after optic nerve crush; assay type: in vivo, mice; conditions: for eye-evoked RMS LFP amplitude in superior colliculus: six weeks after optic nerve crush
Protocol: Two weeks before LFP recordings, AAV overexpressing a fusion of channelrhodopsin 2 and mCherry was injected into the injured eye of the mice. […] Blue lines indicated optical stimulation in the injured eye. (B) Eye-evoked root-mean-square (RMS) LFP amplitudes were automatically determined using Spike2 software with customized MATLAB program. Administration of M1 markedly elevated the eye-evoked RMS LFP amplitudes compared with vehicle-treated controls. Combination of phosphatase and tensin homolog (Pten) deletion and M1 treatment further increased the RMS LFP amplitudes after optical stimulations of injured RGCs. Mean±SEM (n=4-5 per group). *P<0.05, one-way ANOVA with Bonferroni post-hoc test.
To record evoked LFP in SC, mice received intravitreal injection of AAV-ChR2-mCherry […]. Six weeks after optic nerve crush injury, we stimulated the injured RGCs by placing an optical fiber with blue laser at 473 nm illuminated at the periphery of the left eye (injured). Evoked LFPs in response to the optical stimuli from ChR2-overexpressing RGCs were recorded in the SC. There were virtually no LFP amplitudes that could be detected from the vehicle-treated mice (FIG. 7A), which was consistent with the histology results. […] Treating the mice with M1 and Pten deletion restored almost 25% of the maximal LFP amplitude compared with uninjured mice.
To optically stimulate the RGCs in vivo, AAV expressing a fusion of channelrhodopsin-2 and mCherry (AAV-ChR2-mCherry) at viral titre of 1×10^13 vg/ml was injected intravitreally into both eyes two weeks before optogenetics experiments. For intravitreal injection, a micropipette was gently inserted into the peripheral retina of the eye, just behind the ora serrata, placed with an angle to avoid damages to the lens. […]
The data recorded from the system was used as digital input signals for synchronization of the optogenetics setup. Data were analyzed offline using spike2 software (Version 8) and customized MATLAB program. Root-mean-square (RMS) amplitudes after optical stimulation was calculated (FIG. 7).

[3] = system: sciatic nerve crush injury (peripheral nerve injury model); experiment: Quantification of GAP-43-positive regenerating axons after sciatic nerve crush injury; assay type: in vivo, C57BL/6 mice; conditions: 3 days after injury; 5 mm distal to crushed site
Protocol: (§1) FIG. 2 depicts an experimental paradigm for assessing the growth-promoting effects of mitochondrial fusion promoter M1 after peripheral nerve injury. Sciatic nerve crush injury was performed on adult male C57BL/6 mice. Immediately after crush, 20-60 μg of mitochondrial fusion promoter M1 was directly applied on top of the crushed site, followed by a total of 6 administrations (i.e. morning and evening administration with at least 8 hours apart). Sciatic nerve pinch test and axon quantification were performed on day 3 post-injury.
FIG. 3 depicts data showing that mitochondrial fusion promoter M1 accelerates in vivo axonal regrowth after sciatic nerve crush injury in adult mice. Sciatic nerve crush injury was performed on adult C57BL/6 mice (8-12 weeks old). A total of 6 administrations of mitochondrial fusion promoter M1 was directly applied to the crushed site for 3 consecutive days. Sciatic nerve pinch test and axon quantification were performed 3 days after injury. […]
(§2) We first confirmed the growth-promoting effects of mitochondrial fusion promoter M1 using sciatic nerve pinch test. The results from sciatic nerve pinch test were subsequently verified by quantifications of GAP-43-positive regenerating axons 3 days after sciatic nerve crush injury.

[4] = system: dopaminergic neuron-like SH-SY5Y cells; conditions: 1-methyl-4-phenyl-pyridinium (MPP+); cited from earlier work
[5] = system: adult dorsal root ganglion (DRG) neurons; experiment: Neurite outgrowth assay in primary cultures of axotomized adult DRG neurons; assay type: cell-based, C57BL/6 mice; conditions: 2.5 μM, 17 hours
Protocol: FIG. 1 depicts data showing that M1 increases the length of regenerating axons which is directly proportional to the size of mitochondria in DRG neurons. Wildtype adult DRG neurons were treated with M1 at a concentration of 2.5 μM, and 0.1% DMSO was used as vehicle controls. After 17 hours of incubation, cultures were fixed and immunostained with anti-βIII-tubulin antibodies for neurite outgrowth assay. […] Scale bar: 500 μm. […] More than 80 DRG neurons were quantified from each treatment group. Mean±SEM of triplicates. ***P<0.001; Student's t-test. n.s., not significant. CTL, control.
The current study aimed to investigate the therapeutic potential of mitochondrial fusion promoter M1 for treating patients with nerve injuries. First, we examined if mitochondrial fusion promoter M1 could enhance the intrinsic growth capacity of adult neurons, a critical determinant for successful axon regeneration after nerve injuries. We used primary cultures of axotomized dorsal root ganglion (DRG) neurons as an in vitro model to assess the extent of neurite outgrowth after treating the neurons with mitochondrial fusion promoter M1. Primary cultures of DRG neurons were prepared from adult C57BL/6 mice (8-12 weeks old). The DRG neurons were first dissected out, digested with collagenase/dispase II solution (Roche Diagnostics), trypsinized and dissociated mechanically by three flame-polish Pasteur pipettes with different diameters. […]
For neurite outgrowth assay, 30 non-overlapping images were captured at 10× magnifications using Nikon Ni-E epifluorescence microscope equipped with a motorized stage. Total neurite length of each neuron from each condition were automatically measured using WIS-NeuroMath software (Weizmann Institute of Science). At least 250 neurons were quantified from each condition to obtain the average total neurite length. […]

[6] = system: retinal ganglion cells (RGCs); experiment: Retinal ganglion cell (RGC) survival after optic nerve crush injury (RBPMS staining); assay type: in vivo, C57BL/6 mice
[7] = system: sciatic nerve crush injury (peripheral nerve injury model); experiment: Sciatic nerve pinch test after sciatic nerve crush injury; assay type: in vivo, C57BL/6 mice; conditions: 3 days after injury
Protocol: as §1
FIG. 3 depicts data showing that mitochondrial fusion promoter M1 accelerates in vivo axonal regrowth after sciatic nerve crush injury in adult mice. […] Sciatic nerve pinch test and axon quantification were performed 3 days after injury. […]
as §2
Following the completion of dosing paradigm of M1, sciatic nerve pinch test was performed on the ipsilateral nerves 3 days after sciatic nerve crush injury. […] The distance (in mm) was recorded from the crushed site to the most distal point of the nerve where initial withdrawal response was generated after pinching (FIG. 3A).

[8] = system: optic nerve crush injury (CNS injury model); experiment: Axon regeneration (CTB-555-labelled axons) after optic nerve crush injury; assay type: in vivo, C57BL/6 mice

SMILES: CC(=NNc1c(Cl)cc(Cl)cc1Cl)c1cc(Cl)ccc1O [M1]
- restoration of mitochondrial fragmentation [1]: completely restored
- restored share of maximal LFP amplitude compared with uninjured mice ([2]; M1 and Pten deletion): ~25%
- eye-evoked RMS LFP amplitude in superior colliculus ([2]; M1-treated mice): 59.82±3.6 μV
- eye-evoked RMS LFP amplitude in superior colliculus ([2]; Pten-knockout (Pten-KO) and M1-treated mice): 88.36±3.13 μV
- increase in number of GAP-43-positive regenerating axons vs vehicle controls [3]: 2 fold
- protection from MPP+-induced neurotoxicity [4]: protected
- cell survival of DRG neurons [5]: no cell survival effect
- mitochondrial size in DRG neurons (distal axons) [5]: increase in mitochondrial size
- increase in neurite outgrowth from adult DRG neurons ([5]; vs 0.1% DMSO vehicle): 49%
- RGC survival vs vehicle-treated controls ([6]; 14 days after optic nerve crush injury): more retinal ganglion cells (RGCs) were survived
- RGC survival vs vehicle-treated controls ([6]; 28 days after optic nerve crush injury): more retinal ganglion cells (RGCs) were survived
- dose of maximal effect on distal extent of axonal regrowth (pinch test) [7]: 20 µg/day
- increase in most distal axonal regrowth (sciatic nerve pinch test) ([7]; 20-60 μg applied to crushed site, 6 administrations): 55%
- axon regeneration after optic nerve crush ([8]; day 14 post-injury, 1 μg intravitreal at days 0 and 7): robust axon regeneration
- distance reached by regenerating axons ([8]; day 28 post-injury): reach the optic chiasm
- axon regeneration after optic nerve crush ([8]; day 28 post-injury, 1 μg intravitreal at days 0, 7, 14 and 21): robust axon regeneration
- distance reached by regenerating axons ([8]; six weeks after optic nerve crush injury, intravitreal injection): reaching superior colliculus
